Laboratory results as given in patent publication US20030096850A1, “Treating infections by administration of oxazolidinones” (priority 2001, published 2003).

How the values were obtained:
[1] = Human who has acne treated with an Oxazolidinone ointment; type: in vivo; conditions: person, ointment 30 mg/ml twice daily on skin
Staphylococcal aureus = test: Human treated with Oxazolidinone cream or ointment prior to surgery; type: in vivo; conditions: cream or ointment 10-30 mg/ml, evening prior to and morning of surgery
Experimental: (§1) A 75 kilo […] is being prepared for surgery; the types of surgeries include open-heart surgery, joint replacement, back surgery, or any type of invasive surgery. A cream or ointment preparation of 10-30 mg/ml (S)-N-[[3-[3-fluoro-4-(4-morpholinyl)phenyl]-2-oxo-5-oxazolidinyl]methyl]acetamide is liberally spread by a nurse wearing gloves upon the intended site of the incision and an area of 8 inches around the margins of the intended incision site the evening prior to surgery and the first thing in the morning of the surgery. The area of application is kept free of clothing until the cream or ointment is absorbed.

[2] = test system: Staphylococcal epidermidis; test: as above; type: in vivo; conditions: cream or ointment 10-30 mg/ml, evening prior to and morning of surgery
Experimental: as §1

[3] = Human who has an ear infection (otitis media) treated with Oxazolidinone solution; type: in vivo; conditions: child, ten drops of 10 mg/ml solution into the ear twice daily, before 10 days
Experimental: Ten drops of a solution containing 10 mg/ml of (S)-N-[[3-[3-fluoro-4-(4-morpholinyl)phenyl]-2-oxo-5-oxazolidinyl]methyl]acetamide is dropped into the ear twice daily for ten days with an eye dropper and is immediately followed by closing the outer ear canal with cotton.

[4] = Treatment of diabetic foot with cream or ointment; type: in vivo, human; conditions: cream or ointment 10-30 mg/ml three times daily for 10-14 days
Experimental: A 70 kilo […] with a history of diabetes and infected foot ulcerations, also known as diabetic foot, is treated with a cream or ointment preparation of 10-30 mg/ml (S)-N-[[3-[3-fluoro-4-(4-morpholinyl)phenyl]-2-oxo-5-oxazolidinyl]methyl]acetamide. The cream or ointment is liberally spread over the exposed surface of the ulcerations and adjacent whole skin three times daily for 10-14 days.

Row | Structure (SMILES) | reddened and swollen pustules after administration [1] | skin commensal pathogen Staphylococcal aureus throughout the full thickness of the skin at the incision site (Staphylococcal aureus) | skin commensal pathogen Staphylococcal epidermidis throughout the full thickness of the skin at the incision site [2] | fever and ear pain [3] | tissue destruction and repair in the ulcerated area [4]
1 | CC(=O)NC[C@H]1CN(c2ccc(N3CCN(C(=O)CO)CC3)c(F)c2)C(=O)O1 [Example 1, (S)-N-[[3-[3-Fluoro-4-[4-(hydroxyacetyl)-1-piperazinyl]-phenyl]-2-oxo-5-oxazolidinyl]methyl]acetamide] | greatly reduced |  |  |  | 
2 | CC(=O)NC[C@H]1CN(c2ccc(N3CCOCC3)c(F)c2)C(=O)O1 [Example 2, (S)-N-[[3-[3-Fluoro-4-(4-morpholinyl)phenyl]-2-oxo-5-oxazolidinyl]methyl]acetamide] |  | killed or are prevented from growing | killed or are prevented from growing | the fever is down and the pain is gone | tissue destruction in the ulcerated area has visibly ceased and tissue repair has begun
